Experimental data reported in article PMC6222316, “UPLC-MS/MS Method for the Determination of 14 Compounds in Rat Plasma and Its Application in a Pharmacokinetic Study of Orally Administered Xiaoyao Powder” (Molecules : A Journal of Synthetic Chemistry and Natural …, 2018).
Like-named read-outs stand apart in the source and are kept apart here.

Test: Pharmacokinetic study of 14 compounds in rat plasma after oral administration of XYP (UPLC-MS/MS)
Type: in vivo, Sprague–Dawley rats
Parameters: Kel (elimination rate constant): unit not given here
Details: oral XYP 4 g/kg; for AUC(0-inf) / AUC(0-t) / Cmax / half-life / MRT last / MRT inf / Tmax: female, Sprague-Dawley; for MRT last: n = 6, read-out: MRT0–t; for MRT inf: n = 6, read-out: MRT0–∞; for Tmax: rat, plasma, po, 4 g/kg
Experimental: The validated UPLC-MS/MS method was successfully applied to the pharmacokinetic study of 14 compounds in rat plasma after the oral administration of XYP at a dose of 4 g/kg (8-fold the clinical dosage).
Quantitative analysis was conducted on a Waters® Micromass® Quattro Premier™ XE triple-quadrupole tandem mass spectrometer (Waters Corp., Milford, MA, USA). Chromatographic separation was performed on an ACQUITY UPLCTM BEH C18 column (1.7 µm, 50 × 2.1 mm; Waters Corp.) equipped with an ACQUITY UPLC C18 guard column. The column temperature was maintained at 35 °C. The mobile phase consisted of 0.1% formic acid in water (A) and acetonitrile (B). The total flow rate was 0.3 mL/min. Chromatographic separation was achieved using a 14.5-min gradient elution. The gradient conditions of the mobile phase were as follows: 0–4 min, 4–22% (B); 4–5 min, 22–27% (B); 5–10 min, 27–50% (B); and 10–14.5 min, 50–96% (B). The samples were kept at 4 °C in the auto-sampler, and the injection volume was 5 µL.
Methanol (1.5 mL), 10 μg/mL IS and 300 μL plasma was mixed, then vortexed for 1 min. After centrifuging at 14,000× g for 10 min, the supernatant was put into another centrifuge tube. The residue was vortexed with another 1.5 mL methanol and centrifuged again, and the two supernatants were combined and evaporated to dryness under a flow of nitrogen gas at 40 °C. The residue was then dissolved in 100 μL methanol and vortexed for 1 min. Finally, the vortexing and centrifugation process was again repeated, and 5 μL of the supernatant was injected into the UPLC-MS/MS system for analysis.
Twenty healthy female Sprague–Dawley rats (300 ± 20 g) were purchased from the Animal Safety Evaluation Center of Heilongjiang University of Chinese Medicine (Heilongjiang, China). All protocols for animal experiments were approved in accordance with the Regulations of Experimental Animal Administration issued by the State Commission of Science and Technology of the People’s Republic of China. The rats were kept under a light/dark cycle of 12 h, within the temperature range of 24 °C ± 2 °C to room temperature, and at a humidity of 50 ± 10%. All rats were fasted for 12 h before experimentation but were allowed to drink freely. XYP extract was dissolved in water, and the rats were administrated orally with 4 g/kg XYP. Blood samples were collected from the suborbital venous lexus at 0, 0.083, 0.17, 0.33, 0.50, 0.75, 1.0, 2.0, 4.0, 8.0, 12 and 24 h into 1.5-mL heparinized polythene tubes […]. The blood samples were immediately centrifuged at 4500 rpm for 10 min, and the plasma was stored at −80 °C until analysis. The pharmacokinetic parameters (Cmax, tmax, t1/2, Kel, AUC0–t, AUC0–∞, MRT0–t, MRT0–∞) were calculated with the software Winnolin 3.2.

[1] = mean ± SD, n = 6, read-out: tmax

Compound	AUC(0-inf) (mean ± SD, n = 6) [ng·h/mL]	AUC(0-t) (mean ± SD, n = 6) [ng·h/mL]	Cmax (mean ± SD, n = 6) [ng/mL]	half-life (mean ± SD, n = 6) [min]	MRT last (mean ± SD) [h]	MRT inf (mean ± SD) [h]	Tmax [1] [min]	shape of plasma concentration-time curve	Kel (elimination rate constant) (mean ± SD, n = 6)	Tmax (read-out: tmax (time to maximum plasma concentration)) [min]	t1/2 (mean ± SD, n = 6) [h]
CC1(C)[C@@H](O[C@H]2O[C@H](C(=O)O)[C@@H](O)[C@H](O)[C@H]2O[C@@H]2O[C@H](C(=O)O)[C@@H](O)[C@H](O)[C@H]2O)CC[C@]2(C)[C@H]3C(=O)C=C4[C@@H]5C[C@@](C)(C(=O)O)CC[C@]5(C)CC[C@@]4(C)[C@]3(C)CC[C@@H]12 [Glycyrrhizic acid, glycyrrhizic acid]	156 ± 59.6	138 ± 57	18.6 ± 6.61	458 ± 321	10.1 ± 0.58	13.6 ± 5.72	19.8 ± 6.6	double peaks	0.12 ± 0.05		
CCC/C=C1\OC(=O)C2=C1CCC=C2 [Ligustilide, ligustilide]	207 ± 58.5	194 ± 57.7	65 ± 42.2	326 ± 185	5.63 ± 2.32	7.47 ± 4.23	18.6 ± 7.8		0.17 ± 0.10	~18	
O=C1C[C@@H](c2ccc(O[C@@H]3O[C@H](CO)[C@@H](O)[C@H](O)[C@H]3O)cc2)Oc2cc(O)ccc21 [Liquiritin, liquiritin]	181 ± 90.9	163 ± 91.5	57.9 ± 36.6		5.7 ± 1.25	10.2 ± 6.79	23.4 ± 5.4	double peak	0.09 ± 0.04		9.32 ± 5.49
C=C1CCC[C@]2(C)C[C@@H]3OC(=O)C(C)=C3C[C@@H]12 [Atractylenolide II, atractylenolide II]	70.2 ± 25.6	69.5 ± 25.7	22.5 ± 8.04	212 ± 72.6	4.15 ± 0.82	4.43 ± 0.98	38.4 ± 17.4		0.21 ± 0.07		

More lines, now with the values ahead:

AUC(0-inf) (mean ± SD, n = 6) [ng·h/mL]	AUC(0-t) (mean ± SD, n = 6) [ng·h/mL]	Cmax (mean ± SD, n = 6) [ng/mL]	half-life (mean ± SD, n = 6) [min]	MRT last (mean ± SD) [h]	MRT inf (mean ± SD) [h]	Tmax [1] [min]	shape of plasma concentration-time curve	Kel (elimination rate constant) (mean ± SD, n = 6)	Tmax (read-out: tmax (time to maximum plasma concentration)) [min]	t1/2 (mean ± SD, n = 6) [h]	Compound
1620 ± 967	1580 ± 986	403 ± 201	285 ± 167	5.31 ± 0.72	6.37 ± 2.39	21.6 ± 7.8		0.18 ± 0.07			CCC/C=C1\OC(=O)C2=C1CC[C@H](O)[C@H]2O [Senkyunolide I, senkyunolide I]
718 ± 227	697 ± 211	587 ± 181	289 ± 103	4.17 ± 1.38	4.91 ± 1.68	25.2 ± 5.4		0.16 ± 0.06			C[C@@]12C[C@@]3(O)O[C@@H](O1)[C@]1(COC(=O)c4ccccc4)[C@H]3C[C@@]12O[C@@H]1O[C@H](CO)[C@@H](O)[C@H](O)[C@H]1O [Paeoniflorin, paeoniflorin]
18 ± 6.88	16.3 ± 5.15	6.05 ± 1.3	388 ± 154	6.61 ± 1.12	8.88 ± 3.49	25.2 ± 5.4	double peaks	0.12 ± 0.03			C[C@H]1O[C@@H](O[C@H]2CC[C@@]3(C)[C@@H](CC[C@]4(C)[C@@H]3C=C[C@]35OC[C@@]6(CCC(C)(C)C[C@H]63)[C@@H](O)C[C@]54C)[C@]2(C)CO)[C@H](O)[C@@H](O[C@@H]2O[C@H](CO)[C@@H](O)[C@H](O)[C@H]2O)[C@H]1O [Saikosaponin a, saikosaponin a]
